Each compound was assayed on Glomerella lagenarium (Colletotrichum lagenarium) (assay: Fungicidal activity against Glomerella lagenarium (Colletotrichum lagenarium) liquid culture / cucumber / preventative (anthracnose)). Settings: Colletotrichum orbiculare; 20 ppm in the applied formulation; liquid culture (PDB), growth inhibition measured photometrically after 3 to 4 days; compared to untreated control; read-out: disease control.
Type: cell-based
Description: Mycelia fragments or conidia suspensions of a fungus prepared either freshly from liquid cultures of the fungus or from cryogenic storage, are directly mixed into nutrient broth. DMSO solutions of the test compound (max. 10 mg/ml) are diluted with 0.025% Tween20 by a factor of 50 and 10 μl of this solution is pipetted into a microtiter plate (96-well format). The nutrient broth containing the fungal spores/mycelia fragments is then added to give an end concentration of the tested compound. The test plates are incubated in the dark at 24° C. and 96% relative humidity. The inhibition of fungal growth is determined photometrically after 2 to 7 days, depending on the pathosystem, and percent antifungal activity relative to the untreated check is calculated.
Fungicidal activity against Glomerella lagenarium (Colletotrichum lagenarium) liquid culture/cucumber/Preventative (Anthracnose)
Conidia of the fungus from cryogenic storage are directly mixed into nutrient broth (PDB—potato dextrose broth). After placing a (DMSO) solution of test compound into a microtiter plate (96-well format), the nutrient broth containing the fungal spores is added.
The following compounds at 20 ppm in the applied formulation give at least 80% disease control in this test when compared to untreated control under the same conditions, which show extensive disease development.
`CON(C(=O)CC1CC1)C(C)c1ccc(-c2noc(C(F)(F)F)n2)cc1` (stereo not drawn) [Compound 1.256, 2-cyclopropyl-N-methoxy-N-[1-[4-[5-(trifluoromethyl)-1,2,4-oxadiazol-3-yl]phenyl]ethyl]-acetamide] was tested, and the inhibition of growth at 20 ppm was ≥ 80%.
In the case of `CON(C(=O)C1CCCC1)C(C)c1ccc(-c2noc(C(F)(F)F)n2)cc1` (stereo not drawn) [Compound 1.257], the inhibition of growth at 20 ppm is reported as ≥ 80%.
In the case of `CON(C(=O)CC(C)C)C(C)c1ccc(-c2noc(C(F)(F)F)n2)cc1` (stereo not drawn) [Compound 1.261, N-methoxy-3-methyl-N-[1-[4-[5-(trifluoromethyl)-1,2,4-oxadiazol-3-yl]phenyl]ethyl]-butanamide], the inhibition of growth at 20 ppm is reported as ≥ 80%.
`CON(C(=O)C1CCC1)C(C)c1ccc(-c2noc(C(F)(F)F)n2)cc1` (stereo not drawn) [Compound 1.262, N-methoxy-N-[1-[4-[5-(trifluoromethyl)-1,2,4-oxadiazol-3-yl]pheny1]ethyl]-cyclobutane-carboxamide] was tested, and the inhibition of growth at 20 ppm was ≥ 80%.
`CON(C(=O)C1CC1C)C(C)c1ccc(-c2noc(C(F)(F)F)n2)cc1` (stereo not drawn) [Compound 1.265, N-methoxy-2-methyl-N-[1-[4-[5-(trifluoromethyl)-1,2,4-oxadiazol-3-yl]phenyl]ethyl]-cyclopropane-carboxamide] was tested, and the inhibition of growth at 20 ppm was ≥ 80%.
With `CON(C(=O)C1(C)CC1)C(C)c1ccc(-c2noc(C(F)(F)F)n2)cc1` (stereo not drawn) [Compound 1.268, N-methoxy-1-methyl-N-[1-[4-[5-(trifluoromethyl)-1,2,4-oxadiazol-3-yl]phenyl]ethyl]-cyclopropane-carboxamide] the inhibition of growth at 20 ppm was ≥ 80%.
With `C#CC(=O)N(OC)C(C)c1ccc(-c2noc(C(F)(F)F)n2)cc1` (stereo not drawn) [Compound 1.269, N-methoxy-N-[1-[4-[5-(trifluoromethyl)-1,2,4-oxadiazol-3-yl]phenyl]ethyl]prop-2-ynamide] the inhibition of growth at 20 ppm was ≥ 80%.
For `CON(C(=O)C1(F)CC1)C(C)c1ccc(-c2noc(C(F)(F)F)n2)cc1` (stereo not drawn) [Compound 1.271, 1-fluoro-N-methoxy-N-[1-[4-[5-(trifluoromethyl)-1,2,4-oxadiazol-3-yl]phenyl]ethyl]-cyclopropane-carboxamide], the inhibition of growth at 20 ppm was ≥ 80%.
For `CON(C(=O)C=CC(C)=O)C(C)c1ccc(-c2noc(C(F)(F)F)n2)cc1` (stereo not drawn) [Compound 1.272, N-methoxy-4-oxo-N-[1-[4-[5-(trifluoromethyl)-1,2,4-oxadiazol-3-yl]phenyl]ethyl]pent-2-enamide], the inhibition of growth at 20 ppm was ≥ 80%.
`CON(C(=O)CC(F)(F)F)C(C)c1ccc(-c2noc(C(F)(F)F)n2)cc1` (stereo not drawn) [Compound 1.277, 3,3,3-trifluoro-N-methoxy-N-[1-[4-[5-(trifluoromethyl)-1,2,4-oxadiazol-3-yl]phenyl]ethyl]-propanamide] was tested, and the inhibition of growth at 20 ppm was ≥ 80%.
For `CON(C(=O)c1ccoc1)C(C)c1ccc(-c2noc(C(F)(F)F)n2)cc1` (stereo not drawn) [Compound 1.278, N-methoxy-N-[1-[4-[5-(trifluoromethyl)-1,2,4-oxadiazol-3-yl]phenyl]ethyl]furan-3-carboxamide], the inhibition of growth at 20 ppm was ≥ 80%.
With `CCCCC(=O)N(OC)C(C)c1ccc(-c2noc(C(F)(F)F)n2)cc1` (stereo not drawn) [Compound 1.281, N-methoxy-N-[1-[4-[5-(trifiuoromethyl)-1,2,4-oxadiazol-3-yl]phenyl]ethyl]-pentanamide] the inhibition of growth at 20 ppm was ≥ 80%.
`CC#CC(=O)N(Cc1ccc(-c2noc(C(F)(F)F)n2)cc1)OCCC` [Compound 1.282, N-propoxy-N-[[4-[5-(trifluoromethyl)-1,2,4-oxadiazol-3-yl]phenyl]methyl]but-2-ynamide] was tested, and the inhibition of growth at 20 ppm was ≥ 80%.
In the case of `CCCON(Cc1ccc(-c2noc(C(F)(F)F)n2)cc1)C(=O)C(C)C` [Compound 1.284, 2-methyl-N-propoxy-N-[[4-[5-(trifluoromethyl)-1,2,4-oxadiazol-3-yl]phenyl]methyl]-propanamide], the inhibition of growth at 20 ppm is reported as ≥ 80%.
`CC=CC(=O)N(Cc1ccc(-c2noc(C(F)(F)F)n2)cc1)OCCC` [Compound 1.285, N-propoxy-N-[[4-[5-(trifluoromethyl)-1,2,4-oxadiazol-3-yl]phenyl]methyl]but-2-enamide] was tested, and the inhibition of growth at 20 ppm was ≥ 80%.
